“And” between values parts separate entries of the source, which are not always exact repeats. Equal entries are not always repeated. Some results are limits rather than exact numbers.

Here are results for one compound from PMC10011554, “BET inhibitor trotabresib in heavily pretreated patients with solid tumors and diffuse large B-cell lymphomas” (Nature Communications, 2023).

The subject of one data set is CCR1 mRNA. The data set is described as follows: Blood CCR1 mRNA levels (QuantiGene, normalized to PPIB). As to conditions: for decrease of blood PD marker CCR1 achieved: part A. The data set is classed as in vivo, human. The procedure: Changes in peripheral CCR1 mRNA levels, expression of which is modulated following BET inhibition, were assessed using QuantiGene technology (Thermo Fisher Scientific) and normalized to the expression of a control gene, peptidylprolyl isomerase B (PPIB). The data were presented as a percentage of pre-dose mRNA levels.

The nature of data set [1]: Prediction of human PK and exposure by allometric scaling; HED calculation. An excerpt:
Protocol CC- 90010- ST-001 Celgene Corporation
Figure 3: CC- 90010- mediated Tumor Growth Inhibition of GBM3 (Glioblastoma Multiforme Patient-derived Xenograft) with and without Temozolomide […]
BID = twice daily; IP = investigational product (CC-90010); PO = by mouth; QD = once daily; SEM = standard […]
Source: Unpublished data from Celgene Corporation.
1.2.2. Nonclinical Pharmacokinetics and Drug Metabolism
In vitro and in vivo studies have been conducted to characterize the absorption, PK, distribution, metabolism and elimination of CC-90010. Robust and reproducible bioanalytical methods for the quantitation of CC-90010 levels were developed and used in PK and toxicokinetic studies.
Human PK parameters and exposures were predicted using allometric scaling.
Pharmacokinetics and oral bioavailability of CC-90010 were evaluated in Sprague-Dawley rats […]
clearance than females. […]
The metabolism of CC-90010 was evaluated in vitro using hepatocytes from various species (mouse, rat, rabbit, dog, monkey, and human). […]
Based on the doses and exposures at which the principal treatment-related effects occurred in the GLP-compliant, 4-week rat and dog studies, both species are considered of similar sensitivity to the toxicities associated with CC-90010 administration. […] This CC-90010 dose was calculated using the approach described in the ICH S9 Guideline entitled “Nonclinical Evaluation for […]

Another data set relates to RC-K8 (ABC DLBCL). Also noted: method as in Report CC-90010-Pharm-1018. As to conditions: RC-K8, Experiment 1, ref Report CC-90010-Pharm-1018; read-out: absolute IC50, proliferation; cited from earlier work.

As for `Cn1cc(-c2cc(S(C)(=O)=O)ccc2OCC2CC2)c2ccccc2c1=O` [trotabresib], the “decrease of blood PD marker CCR1 achieved” value with CCR1 mRNA (30 mg 3-days-on/11-days off, 4 hours post last dose in the first cycle) is given as at least 50%; with CCR1 mRNA (45 mg 4-days-on/24-days-off) it was at least 50%. Besides, the “percentage of baseline CCR1 expression, individual patients” value with CCR1 mRNA (part B, 30 mg/day (n = 2), 4 h after last dose) is 13.4467 % of baseline and 130.198 % of baseline; in the data set on CCR1 mRNA (part B, 30 mg/day (n = 3), 4 h after first dose), 50.27 % of baseline and 55.3963 % of baseline and 80.5103 % of baseline; with CCR1 mRNA (part B, 45 mg/day (n = 15), 4 h after last dose), 26.7231 % of baseline and 32.2909 % of baseline and 32.5849 % of baseline and 34.1593 % of baseline and 38.7251 % of baseline and 45.8741 % of baseline and 59.7173 % of baseline and 62.1329 % of baseline and 84.9845 % of baseline and 97.8745 % of baseline and 102.299 % of baseline and 7.416 % of baseline and 12.7872 % of baseline and 15.5412 % of baseline and 22.7163 % of baseline; in the data set with CCR1 mRNA (part B, 45 mg/day (n = 16), 4 h after first dose), 31.799 % of baseline and 32.0053 % of baseline and 36.1061 % of baseline and 40.3422 % of baseline and 46.5342 % of baseline and 46.6648 % of baseline and 52.9092 % of baseline and 58.7813 % of baseline and 59.2329 % of baseline and 60.0574 % of baseline and 60.1703 % of baseline and 87.3968 % of baseline and 24.9251 % of baseline and 27.9014 % of baseline and 28.1552 % of baseline and 31.5602 % of baseline. In the data set with CCR1 mRNA (part B, 45 mg/day 4 days on/24 days off, 4 h after the first and last dose), the “Mean CCR1 mRNA level” value was < 50 % of baseline. Moreover, the “mean reduction of blood CCR1 mRNA” value with CCR1 mRNA (part B, 45 mg/day 4 days on/24 days off, after the first and last dose) is over 50%. Moreover, the “percentage of baseline CCR1 expression, individual patients Pt 1-16” value is 30.5369 % of baseline and 28.4986 % of baseline and 30.4914 % of baseline and 56.7025 % of baseline and 34.2349 % of baseline and 126.292 % of baseline and 41.5689 % of baseline and 39.5781 % of baseline and 38.6952 % of baseline in the data set on CCR1 mRNA (part B, 45 mg/day 4 days on/24 days off, time 2 h); 11.6428 % of baseline and 66.6434 % of baseline and 61.1466 % of baseline and 71.42 % of baseline and 107.064 % of baseline and 92.4076 % of baseline and 206.706 % of baseline and 11.5951 % of baseline and 29.4034 % of baseline and 32.6074 % of baseline and 46.3108 % of baseline and 35.5399 % of baseline and 51.254 % of baseline and 16.3541 % of baseline and 56.3318 % of baseline and 47.472 % of baseline with CCR1 mRNA (part B, 45 mg/day 4 days on/24 days off, time 72 h); 7.664 % of baseline and 43.5783 % of baseline and 101.397 % of baseline and 68.6148 % of baseline and 66.624 % of baseline and 90.5744 % of baseline and 6.3621 % of baseline and 11.918 % of baseline and 23.0451 % of baseline and 38.3287 % of baseline and 18.1003 % of baseline and 30.2477 % of baseline and 30.0183 % of baseline and 30.3305 % of baseline in the data set with CCR1 mRNA (part B, 45 mg/day 4 days on/24 days off, time 74 h); 7.416 % of baseline and 22.7163 % of baseline and 45.8741 % of baseline and 84.9845 % of baseline and 62.1329 % of baseline and 102.299 % of baseline and 97.8745 % of baseline and 12.7872 % of baseline and 26.7231 % of baseline and 38.7251 % of baseline and 59.7173 % of baseline and 32.5849 % of baseline and 15.5412 % of baseline and 32.2909 % of baseline and 34.1593 % of baseline in the data set on CCR1 mRNA (part B, 45 mg/day 4 days on/24 days off, time 76 h); 18.2209 % of baseline and 101.061 % of baseline and 57.0673 % of baseline and 66.6995 % of baseline and 126.329 % of baseline and 107.431 % of baseline and 11.7759 % of baseline and 20.7746 % of baseline and 24.4742 % of baseline and 39.7466 % of baseline and 30.1049 % of baseline and 35.253 % of baseline and 12.8666 % of baseline and 60.4272 % of baseline and 48.4025 % of baseline with CCR1 mRNA (part B, 45 mg/day 4 days on/24 days off, time 96 h); 1110.93 % of baseline and 46.7528 % of baseline and 137.362 % of baseline and 245.348 % of baseline and 178.841 % of baseline and 306.585 % of baseline and 142.224 % of baseline and 191.429 % of baseline and 72.8857 % of baseline and 69.6406 % of baseline and 101.659 % of baseline and 69.3899 % of baseline and 160.385 % of baseline and 78.4141 % of baseline and 220.588 % of baseline with CCR1 mRNA (part B, 45 mg/day 4 days on/24 days off, time 168 h). Further, the “percentage of baseline CCR1 expression, individual patients Pt 1-16” value in the data set on CCR1 mRNA (part B, 45 mg/day 4 days on/24 days off, time 192 h) is 44.5123 % of baseline and 125.959 % of baseline and 259.615 % of baseline and 202.75 % of baseline and 242.493 % of baseline and 146.374 % of baseline and 154.035 % of baseline and 288.7 % of baseline and 109.004 % of baseline and 72.27 % of baseline and 78.3761 % of baseline and 79.513 % of baseline and 168.811 % of baseline and 147.701 % of baseline and 179.93 % of baseline. In addition, the HED is recorded as 2.1 mg base/kg in data set [1] (from dog HNSTD) and 3.2 mg base/kg in data set [1] (from rat STD10). For the same compound, the IC50 in the data set with RC-K8 (ABC DLBCL) was 130 nM.
